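96-well plates; 48 h exposure; 5 concentrations. Endpoints by linear interpolation between flanking doses. Not reached: highest tested concentration assigned. GI50 marks 50% less growth.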 Activity calls are given as the source filed them. Cut-off read from the data, not from the text of the source: active = GI50 up to about 1.1 µM and inactive = higher.
Experiments:
Test in all cases: NCI anticancer screen, dose series, 48 h
MOLT-4 = test system: MOLT-4
SK-OV-3 = test system: SK-OV-3
CCRF-CEM = test system: CCRF-CEM
NCI-H23 = test system: NCI-H23
EKVX = test system: EKVX
HL-60 = test system: HL-60
OVCAR-8 = test system: OVCAR-8
OVCAR-3 = test system: OVCAR-3
SW-620 = test system: SW-620
A549 = test system: A549
SNB-75 = test system: SNB-75
IGROV-1 = test system: IGROV-1
HCC 2998 = test system: HCC 2998
SF-539 = test system: SF-539
HOP-92 = test system: HOP-92
SR = test system: SR

Measured: GI50

C=C1C(=O)OC2C/C(C)=C/CC/C(C)=C/CCC3(COC(C)=O)OC3CC12 (centres undefined)
inactive: MOLT-4 4.42 µM | SK-OV-3 13.7 µM | CCRF-CEM 2.7 µM | NCI-H23 11.8 µM | EKVX 19.6 µM | HL-60 2.21 µM | OVCAR-8 6.52 µM | OVCAR-3 6.19 µM | SW-620 2.04 µM | A549 16.4 µM | SNB-75 11.6 µM | IGROV-1 16.7 µM | HCC 2998 8.85 µM | SF-539 2.85 µM

Cc1cc(Cl)ccc1NC(=O)CCCC(=O)C1C/C(=N/O)CC/C1=N\O (centres undefined)
inactive: MOLT-4 > 100 µM | SK-OV-3 > 100 µM | CCRF-CEM > 100 µM | NCI-H23 > 100 µM | EKVX > 100 µM | HL-60 > 100 µM | OVCAR-8 > 100 µM | OVCAR-3 > 100 µM | SW-620 > 100 µM | A549 > 100 µM | SNB-75 > 100 µM | IGROV-1 > 100 µM | HCC 2998 > 100 µM | HOP-92 > 100 µM | SF-539 > 100 µM

O=C(Nc1ccccc1C(=O)NC(=O)c1ccccc1NC(=O)c1ccccc1)c1ccccc1
inactive: CCRF-CEM 3.91 µM | NCI-H23 4.57 µM | EKVX 8.71 µM | OVCAR-8 5.04 µM | OVCAR-3 3.29 µM | SW-620 4.84 µM | A549 7.53 µM | SNB-75 2.83 µM | IGROV-1 1.86 µM | SR 2.42 µM | HOP-92 1.99 µM | SF-539 5.09 µM

COc1ccccc1NC(=O)NS(=O)(=O)c1ccccc1
inactive: NCI-H23 > 100 µM | EKVX 88.7 µM | HL-60 > 100 µM | OVCAR-8 > 100 µM | SW-620 > 100 µM | A549 > 100 µM | SNB-75 > 100 µM | HCC 2998 > 100 µM | HOP-92 > 100 µM | SF-539 > 100 µM

CC(C)N(C(=O)C12C3C4C1C1C2C3C41C(=O)C(C)(C)C)C(C)C (centres undefined)
inactive: MOLT-4 26.7 µM | SK-OV-3 > 100 µM | CCRF-CEM 16.1 µM | NCI-H23 > 100 µM | EKVX > 100 µM | HL-60 18.1 µM | OVCAR-8 > 100 µM | OVCAR-3 > 100 µM | SW-620 47.4 µM | A549 > 100 µM | SNB-75 > 100 µM | IGROV-1 > 100 µM | HCC 2998 > 100 µM | SF-539 > 100 µM

O=[N+]([O-])c1ccc(N=P(c2ccccc2)(c2ccccc2)c2ccccc2)n2nnnc12
inactive: MOLT-4 77.8 µM | SK-OV-3 46.1 µM | CCRF-CEM 68.9 µM | NCI-H23 > 100 µM | EKVX 58.7 µM | HL-60 36.1 µM | OVCAR-8 31 µM | OVCAR-3 34.5 µM | SW-620 > 100 µM | A549 40.6 µM | SNB-75 21.9 µM | IGROV-1 > 100 µM | HOP-92 22.2 µM | SF-539 23 µM

CCCCOC(=O)NC(=O)c1cn(CCCOC(=O)CCCCCCCCC(=O)OCCCn2cc(C(=O)NC(=O)OCCCC)c(=O)[nH]c2=O)c(=O)[nH]c1=O
inactive: MOLT-4 > 100 µM | SK-OV-3 > 100 µM | CCRF-CEM > 100 µM | NCI-H23 > 100 µM | EKVX > 100 µM | HL-60 > 100 µM | OVCAR-8 > 100 µM | OVCAR-3 > 100 µM | SW-620 > 100 µM | A549 > 100 µM | IGROV-1 > 100 µM | HCC 2998 > 100 µM | SR > 100 µM | HOP-92 > 100 µM | SF-539 > 100 µM

— ChEMBL document CHEMBL1201862, “PubChem BioAssay data set” (2004)
